In data set [1] the test system is rno expression in HL-60 cells. Briefly: RT-PCR analysis of rno expression in HL-60 cells treated with differentiating agents. In kind it is cell-based, human. Conditions: for rno expression (RT-PCR), sGC/cGMP pathway agents alone: ODQ 10 μM, 8-Br-cGMP 3 mM; for time course of rno induction (RT-PCR): 125 μM DETA-NO or 1.2% DMSO added once, 24, 48, 72 hr; for rno expression (RT-PCR): DETA-NO 125 μM, DMSO 1.2% (v/v), VD3 100 nM. The protocol:
FIG. 4 is a […] showing the effect of differentiating agents on rno expression in HL-60 cells. For the upper panel, HL-60 cells were treated with DETA-NO, DMSO, or VD3 for 24 hours before analysis of rno expression by RT-PCR. Lane 1, no treatment control; Lane 2, DETA-NO; Lane 3, DMSO; Lane 4, VD3; Lane 5, water blank (no template); Lane 6, reverse transcriptase omitted from the reaction mixture; Lane 7, RT-PCR performed using RNA isolated from normal PMN (positive control). The positions of the size marker (MW) are indicated on the left. The positions of rno-1 and rno-3 are shown on the right. Referring to the lower panel, RT-PCR analysis of actin expression was used to control for the quality and integrity of the cDNA that was prepared from the various samples. Lane 1, no treatment control cells; Lane 2, cells treated with DETA-NO, Lane 3, cells treated with DMSO; Lane 4, cells treated with VD3; Lane 5, water blank (no template), Lane 6, RT-PCR performed using RNA isolated from normal PMN.
FIG. 5 illustrates the time course of rno induction in HL-60 cells. For the results of the upper panel, HL-60 cells were treated with 125 μM DETA-NO or 1.2% DMSO, and expression of rno was analyzed by RT-PCR at three different time points. MW, 100 bp DNA ladder; Lane 1, no-treatment control cells; Lane 2, cells treated with DETA-NO for 24 hr; Lane 3, cells treated with DETA-NO for 48 hr; Lane 4; cells treated with DETA-NO for 72 hr; Lane 5, cells treated with DMSO for 24 hr; Lane 6, cells treated with DMSO for 48 hr; Lane 7, cells treated with DMSO 72 hr; Lane 8, water blank (no template). The position of rno-1 is indicated on the left. For the results of the lower panel, RT-PCR analysis of actin expression was used to control for the quality and integrity of the cDNA that was prepared from the various samples. MW, 100 bp DNA ladder; Lane 1, no-treatment control cells; Lane 2, cells treated with DETA-NO for 24 hr; Lane 3, cells treated with DETA-NO for 48 hr; Lane 4; cells treated with DETA-NO for 72 hr; Lane 5, cells treated with DMO for 24 hr; Lane 6, cells treated with DMSO for 48 hr; Lane 7, cells treated with DMSO 72 hr. The position of actin is indicated on the left. DETA-NO upregulates rno within 24 hours and expression returns to baseline by 48 hours. DMSO also upregulates rno within 24 hours but expression persists through the entire 72 hr of exposure.
FIG. 6 illustrates the effect of cGMP on rno expression. In the upper pannel, HL-60 cells were treated with DETA-NO, 8Br-cGMP, ODQ, or ODQ and DETA-NO for 24 hours. Subsequently rno expression was analyzed by using RT-PCR. Lane 1, molecular mass standards (100 bp ladder); Lane 2, no-treatment control cells; Lane 3, DETA-NO; Lane 4, 8-Br-cGMP; Lane 5, ODQ; Lane 6, ODQ and DETA-NO; Lane 7, water blank (no cDNA template); Lane 8, reverse transcriptase omitted from one of the reaction mixtures. The position of rno-1 is indicated on the left. In the lower panel, RT-PCR analysis of actin expression was used to control for the quality and integrity of the cDNA that was prepared from the various samples. Lane 1,100 bp DNA ladder; Lane 2, no-treatment control; Lane 3, cells treated with DETA-NO; Lane 4, cells treated with 8Br-cGMP; Lane 5, cells treated with ODQ; Lane 6, cells treated with ODQ and DETA-NO. The position of actin is indicated on the left. Upregulation of rno by DETA-NO is cGMP-independent.
Referring to FIG. 4, RT-PCR was used to compare the effects of three differentiating agents on expression of rno. NO induces HL-60 cells to differentiate along the monocytic lineage. Magrinat, G et al. (1992) Blood, 80:1980-1986. DMSO is a granulocytic differentiation agent, while VD3 induces monocytic differentiation. Trayner, ID et al. (1998) Leuk Res., 22:537-547.
Referring to FIG. 4, both NO and DMSO induce expression of rno. To determine if the time-course of induction is similar, HL-60 cells were incubated with either DETA-NO or DMSO for 72 hr. […]

The subject of data set [2] is rno expression in HL-60 cells. As to the kind of experiment: Northern analysis of rno expression in DETA-NO treated HL-60 cells. The class given is cell-based, human. The conditions noted are these: DETA-NO 125 μM, 24 hr, DP-3A probe. The protocol: FIG. 1 is a northern blot showing the induction of rno expression by NO. HL-60 cells were treated for 24 hr with DETA-NO (125 μM). Total cellular RNA was isolated and northern analysis was performed by using radiolabelled rno DP-3A as a probe as shown in the upper panel. […] The positions of the bands representing 28S and 18S ribosomal RNA are indicated on the left. Lane 1, RNA from control, untreated cells; Lane 2, RNA from DETA-NO treated cells.
The following two sets of cells were used for analysis of the effects NO on gene expression: control HL-60 cells incubated in media for 24 hours and HL-60 cells treated with 125 μM DETA-NO (a NO generating compound) for the same time period. Poly (A^+) RNA was prepared from the two sets of cells, and this material was used as template for the synthesis of double stranded cDNA. Following digestion with BglII, a set of primer/adapters was ligated to aliquots of each sample, and this cDNA was amplified by PCR to generate representations from the control and treated populations. By using the technique of RDA modified for cDNA, gene expression between the control and DETA-NO treated cells was compared. Lisitsyn, N et al. (1993) Science.259:946-951; Hubank, M & Schatz, D G (1994) Nucl Acids Res. 22:5640-5648; Kanai, N et al. (1999) Am J Hematol., 61:221-231. In the present study, two sets of subtraction/hybridizations were performed in parallel. […]

Data set [3] can be described thus: Half-life of NO release of DETA-NO. In kind it is physicochemical. The conditions noted are these: by the time the 48 hr sample was harvested, from half-life of 20 hr. The protocol:
HL-60 cells were from ATCC (Rockville, Md.) and were cultured at 37° C. in a 5% CO2 humidified atmosphere at a density of 150,000 cells/ml. The culture medium consisted of RPMI-1640 supplemented with 10% fetal bovine serum and 1% Penicillin (10,000 U/mL)/Streptomycin (10 mg/mL). (Z)-1-[2-(2-Aminoethyl)-N-(2-ammonioethyl)amino]diazen-1-um-1,2-diolate] (DETA-NO) was used as a source of NO. DETA-NO belongs to the diazenium diolate class of NO donors and releases 2 molecules of NO per carrier moiety with a half-life of NO release of 20 hours. Keefer, L K et al. (1996) Methods in Enzymology.268:281-293. The effects of the following other differentiating agents on expression of rno were also investigated: dimethyl sulfoxide (DMSO); all-trans retinoic acid (ATRA); and vitamin D3 (VD3). DETA-NO, DMSO, ATRA, or VD3 were added once to HL-60 cells at the time of culture initiation at concentrations of 125 μM, 1.2% (v/v), 1 μM, and 100 nM, respectively. For studies of the role of the soluble guanylate cyclase (sGC)/cGMP signal transduction pathway in NO upregulation of rno, the sGC inhibitor 1H-[1,2,4]oxadiazolo[4,3-a]quinoxalin-1 -one (ODQ) and the cell permeable cGMP analogue 8-Br-cGMP at concentrations of 10 μM were used and 3 mM, respectively. Brunner, F et al. (1996) J Pharmacol Exp Ther. 277:48-53; Boss, GR.(1989) Proc Natl Acad Sci USA. 86:7174-7178. […]

Structures are written as SMILES.

Take `O=c1onc2cnc3ccccc3n12` [ODQ, 1H-[1,2,4]oxadiazolo[4,3-a]quinoxalin-1-one]: the “rno expression (RT-PCR), sGC/cGMP pathway agents alone” value in data set [1] (24 hours) is given as “did not upregulate rno expression”. In addition, the “effect of sGC inhibitor on induction of rno by DETA-NO (RT-PCR)” value in data set [1] (ODQ and DETA-NO in combination, 24 hours) was “did not prevent the induction of rno by DETA-NO”.
As to `CC1=C(/C=C/C(C)=C/C=C/C(C)=C/C(=O)O)C(C)(C)CCC1` [ATRA, all-trans retinoic acid], the “rno expression (RT-PCR), data not shown” value in data set [1] (ATRA 1 μM, even after 72 hr of exposure) is recorded as “no effect on rno expression”.
`NCCN(CCN)/[N+]([O-])=N/O` [DETA-NO]: the “rno expression (northern blot)” value in data set [2] was “upregulates rno expression”. In addition, in data set [1], the “time course of rno induction (RT-PCR)” value is “evident at 24 hr and returned to baseline by 48 hr”. In addition, the “rno expression (RT-PCR)” value in data set [1] (24 hours) is on record as “upregulated”. The “decrease of functional activity of the reagent” value in data set [3] was “more than 75%”.
As for `Nc1nc2c(nc(Br)n2[C@@H]2O[C@@H]3COP(=O)(O)O[C@H]3[C@H]2O)c(=O)[nH]1` [8-Br-9 cGMP], in data set [1] (24 hours), the “rno expression (RT-PCR), sGC/cGMP pathway agents alone” value is “did not induce rno expression”.
As to `C[S+](C)[O-]` [DMSO, dimethyl sulfoxide], the “time course of rno induction (RT-PCR)” value in data set [1] is “induced expression of rno within 24 hr, however, expression persisted through the entire 72 hr observation period”. Besides, the “rno expression (RT-PCR)” value in data set [1] (24 hours) is listed as “upregulated”.
As for `C=C1CC[C@H](O)C/C1=C/C=C1\CCC[C@]2(C)[C@@H]([C@H](C)CCCC(C)C)CC[C@@H]12` [VD3, vitamin D3], the “rno expression (RT-PCR)” value in data set [1] (24 hours) is listed as “not by VD3”.

Values taken from patent US20010029033A1, “Novel gene rno upregulated in leukemia cells by nitric oxide and DMSO” (priority 2000, published 2001).
